Results reported in patent publication US20090062208A1, “Methods for maintaining blood-brain barrier integrity in hypertensive subjects using a delta-PKC inhibitor” (priority 2007, published 2009).

Tests used:
[1] = tested on: middle cerebral arteries; conditions: DS rats; Payne and Smeda 2002; cited from earlier work
[2] = tested on: Dahl salt-sensitive (DS) rats; experiment: Hypertension-induced stroke in Dahl salt-sensitive rats on high-salt diet (blood pressure, stroke incidence); type: in vivo, rat; conditions: hypertensive DS rats; for blood pressure: subcutaneous infusion by osmotic minipump, versus control TAT peptide
Description: (§1) As detailed in Example 1, Dahl salt-sensitive (DS) rats, which are a model for hypertension in humans, were used to evaluate the efficacy of δPKC inhibitor treatment. The animals were initially maintained on a low-salt (0.3% NaCl) diet then switched to a high-salt (8% NaCl) to induce hypertension. The rats were subcutaneously treated with either a saline solution, a control peptide (TAT, SEQ ID NO:85), or a δPKC peptide inhibitor. Blood pressure was measured bi-weekly and blood-brain barrier (BBB) disruption was assessed at the end of the treatment period. Proteomic analysis of brain samples was carried out to identify differences in the brains of control TAT peptide and δV1-1-treated animals.
Male Dahl salt-sensitive (DS) rats were maintained on a low-salt (0.3% NaCl) diet until 6 weeks of age. The animals were then switched to a high-salt (8% NaCl) diet until 15 weeks of age. The animals were monitored daily for symptoms of systemic hypertension.
(§2) The rats were subcutaneously infused (i.e., treated) with a saline solution, a control TAT peptide (YGRKKRRQRRR, SEQ ID NO:85), or the peptide inhibitor δV1-1 (SFNSYELGSL, SEQ ID NO: 1) attached via an N-terminal disulfide bond to TAT peptide (YGRKKRRQRRR-CC-SFNSYELGSL, SEQ ID NO:89), at a rate of 5.0 μL/hour, using an osmotic minipump. Treatment began at 11 weeks of age and survival rate and neurological deficits were recorded through week 15. Blood pressure was measured bi-weekly and blood-brain barrier disruption was assessed at 13 weeks by measuring Evans Blue dye extravasation. Proteomic analysis of brain samples was carried out to identify differences in the brains of control TAT peptide and δV1-1-treated animals. Blood brain barrier-related proteins were evaluated by immunoblot analysis.

[3] = tested on: blood-brain barrier; experiment: Blood-brain barrier disruption by Evans Blue dye extravasation; type: in vivo, rat; conditions: hypertensive DS rats, at 13 weeks, n=6, p<0.01
Description: as §1
as §2, with “Proteomic analysis of brain samples was carried out to identify differences in the brains of control TAT peptide and δV1-1-treated animals.” left out

[4] = tested on: transferrin and actin; experiment: Proteomic analysis of brain samples; type: in vivo, rat; conditions: brain samples taken at 13 weeks of age, continuous administration
Description: as §1
as §2, with “Proteomic analysis of brain samples was carried out to identify differences in the brains of control TAT peptide and δV1-1-treated animals.” left out

[5] = tested on: zonula occludens 1 (ZO-1), and occludin; experiment: Immunoblot analysis of blood brain barrier-related proteins; type: in vivo, rat; conditions: hypertensive DS rats
Description: as §2

| Compound | middle cerebral artery constriction in response to elevated blood pressure [1] | incidence of stroke (and stroke-associated symptoms) ([2]; relative to the TAT control group, n=24, p<0.01) | blood pressure ([2]; listed as δPKC inhibitor) | blood pressure ([2]; listed as δV1-1 peptide) | Evans Blue extravasation into the brain parenchyma [3] | increased levels of transferrin and actin in brain samples [4] | hypertension-induced redistribution of tight junction-related proteins ZO-1 and occludin [5] |
| --- | --- | --- | --- | --- | --- | --- | --- |
| COc1ccc2c(c[n+](C)c3c4cc5c(cc4ccc23)OCO5)c1OC [chelerythrine] | inhibited constriction |  |  |  |  |  |  |
| YGRKKRRQRRR-CC-SFNSYELGSL [δV1-1] |  | significantly decreased | similar | identical | reduced | attenuated | blocked |
| bisindolylmaleimide | inhibited constriction |  |  |  |  |  |  |
